Data on two compounds can be found in paper PMC6610665, “On the potential of in vitro organ-chip models to define temporal pharmacokinetic-pharmacodynamic relationships” (Scientific Reports, 2019).

Each structure is given as a SMILES string. Like-named read-outs stand apart in the source and are kept apart here.

A short description of data set [1]: Heart only and heart:liver chip PKPD model (Phoenix NLME 7.0). The protocol: Heart, liver, media, and PDMS compartments and their corresponding parameters can be seen outlined in Fig. 4a.
A fifth compartment, FPD, was added to the Phoenix model to represent a PD profile linked to the defined PK model.
Using the experimental data collected (Fig. 3), parameters (except for Kint) were simultaneously fit across heart only and heart-liver systems. […] In the heart only case, the liver compartment was eliminated resulting in relevant parameters being equal to 0. Volumes of each compartment was defined by system parameters described above. The liver volume was initialized based on the system estimates but allowed to vary to account for any differences between assumed and actual cell numbers or sizes. […] Published Guinea pig[23], dog[24] and human, PK profiles were used as inputs into the established model in order to predict cardiac bioaccumulation over time, and therefore predict change in predicted FPD. While Guinea pig and dog temporal PKPD data is available in the literature, matching human data is not. […] The reported standard deviation values in PK profile were used to capture the associated error in predicted FPD values.

For data set [2] the following is noted: heart:liver model, 5 µM terfenadine, mean ± SD.
Procedure: (§1) All drugs were separated using gradient elution methodology on a C18 phase (Agilent Zorbax Eclipse Plus, 4.6 mm, 100 mm length, 3 µm particle diameter) with binary mobile phase. Samples (50 µL) were diluted with acetonitrile and centrifuged to precipitate proteins after addition of the internal standard. The MS was set to positive ion mode and multiple reactive monitoring with nitrogen used for collision induced dissociation.
For data set [3] the following is noted: heart only model, 5 µM terfenadine.
Procedure: as §1
Details of data set [4]: method as in PMID 18587422, PMID 16581270. To be noted: dog; assumed for FPD simulation; cited from earlier work.
On the set-up of data set [5]: method as in PMID 18587422, PMID 16581270. To be noted: human; assumed for FPD simulation; cited from earlier work.
Details of data set [6]: method as in PMID 18587422, PMID 16581270. To be noted: Guinea pig; assumed for FPD simulation; cited from earlier work.
Data set [7] has as its system hiPS-CMs. In words: Heart only MPS model, field potential duration (FPD) by MEA. Format: cell-based, human. To be noted: 5 µM terfenadine.
Procedure: The medium recirculates between 2 reservoirs through a microfluidic network formed by the PDMS gaskets, with flow driven by a rocking platform producing a sinusoidal rocking profile with amplitude of ±1° and period of 60 seconds. The medium flows over the cell-containing areas of the liver coverslips and cardiac cantilever and MEA chips within the microfluidic channel. The system contained a total of 2 mL of medium throughout the flow channel and reservoirs. Compound dosing was applied at the reservoir closest to the liver chamber, such that the compound would first pass over and interact with the liver before being recirculated throughout the system.
hiPS-CMs (purchased from Cellular Dynamics) were thawed and seeded directly onto the surfaces at 50,000 cells per MEA and 500,000 cells per cantilever[6]. Primary human hepatocytes were purchased from the Cell Resources Core (Massachusetts General Hospital, Boston, MA, USA). Once thawed, 150,000 hepatocytes were cultured in the hepatic chamber which was coated with rat tail collagen type I (60 ug/mL) as previously described[6]. […]
FPD, spontaneous beat frequency and CV were extracted using Clampfit (Axon Instruments). The FPD was calculated by measuring the time from the initiation of the Q-wave until the apex of t-wave. […]
Setting [8] is: fit across heart only and heart:liver systems.

Regarding `CC(C)(C(=O)O)c1ccc(C(O)CCCN2CCC(C(O)(c3ccccc3)c3ccccc3)CC2)cc1` (centres unmarked) [fexofenadine], in data set [1] (fit to fexofenadine concentration data, units printed n/a), the “tvKint (delay of fexofenadine release into the system), estimate” value is listed as 0.00062.

Turning to `CC(C)(C)c1ccc(C(O)CCCN2CCC(C(O)(c3ccccc3)c3ccccc3)CC2)cc1` (centres unmarked) [terfenadine], the “terfenadine concentration in media (peak)” value in data set [2] (0.5 hours) was 0.53 µM. In addition, in data set [2] (peak between 0.5 and 1 hours), the “terfenadine concentration in heart chamber lysate (peak)” value is 1.08 µM and the “terfenadine concentration in liver chamber lysate (peak)” value worked out at 12.04 µM. Also, in data set [1] (setting [8]), the “KC1 (flow medium to heart), estimate” value was 0.0019 min⁻¹; the “KP2 (first order flow PDMS to medium), estimate” value is 0.00052 min⁻¹; the “Kfc (metabolism of terfenadine to fexofenadine in heart compartment), estimate” value was 0.0009 min⁻¹. Further, in data set [1] (heart:liver system), the “KL2 (flow liver to medium), estimate” value is 0.04988 min⁻¹ and the “Kfl (metabolism of terfenadine to fexofenadine in liver compartment), estimate” value was 0.0162 min⁻¹. Besides, the “terfenadine concentration in media” value in data set [3] (12-hour timepoint) stood at 0.099 µM. Further, in data set [3] (0.5 hours, mean ± SD), the “terfenadine concentration in media (peak)” value was found to be 5.88 µM. The “terfenadine concentration in cardiomyocyte lysates (peak)” value in data set [3] (4 hours, mean ± SD) came out at 2.65 µM. Also, in data set [4], the “percent free protein in plasma” value was 2%. Further, the “percent free protein in plasma” value in data set [5] is given as 3%. Besides, the “percent free protein in plasma” value in data set [6] is on record as 3%. In addition, the “increase in FPD” value in data set [7] (12-hour timepoint) stood at 4.8 fold. Also, the “increase in FPD (peak measurable change)” value in data set [7] (4 hours) was 8 fold.
